The results in this text go back to ChEMBL document CHEMBL2086330, “Ras inhibition via direct Ras binding--is there a path forward?” (Bioorg Med Chem Lett, 2012).

One experiment concerns the target GTPase KRas (Homo sapiens, UniProt P01116, G12D). Put plainly: Binding affinity to K-Ras G12D mutant-GDP complex.
Experiment [1] deals with T1, Son of sevenless homolog 1 (Homo sapiens, UniProt Q07889).
T1 sequence (Q07889 whole entry): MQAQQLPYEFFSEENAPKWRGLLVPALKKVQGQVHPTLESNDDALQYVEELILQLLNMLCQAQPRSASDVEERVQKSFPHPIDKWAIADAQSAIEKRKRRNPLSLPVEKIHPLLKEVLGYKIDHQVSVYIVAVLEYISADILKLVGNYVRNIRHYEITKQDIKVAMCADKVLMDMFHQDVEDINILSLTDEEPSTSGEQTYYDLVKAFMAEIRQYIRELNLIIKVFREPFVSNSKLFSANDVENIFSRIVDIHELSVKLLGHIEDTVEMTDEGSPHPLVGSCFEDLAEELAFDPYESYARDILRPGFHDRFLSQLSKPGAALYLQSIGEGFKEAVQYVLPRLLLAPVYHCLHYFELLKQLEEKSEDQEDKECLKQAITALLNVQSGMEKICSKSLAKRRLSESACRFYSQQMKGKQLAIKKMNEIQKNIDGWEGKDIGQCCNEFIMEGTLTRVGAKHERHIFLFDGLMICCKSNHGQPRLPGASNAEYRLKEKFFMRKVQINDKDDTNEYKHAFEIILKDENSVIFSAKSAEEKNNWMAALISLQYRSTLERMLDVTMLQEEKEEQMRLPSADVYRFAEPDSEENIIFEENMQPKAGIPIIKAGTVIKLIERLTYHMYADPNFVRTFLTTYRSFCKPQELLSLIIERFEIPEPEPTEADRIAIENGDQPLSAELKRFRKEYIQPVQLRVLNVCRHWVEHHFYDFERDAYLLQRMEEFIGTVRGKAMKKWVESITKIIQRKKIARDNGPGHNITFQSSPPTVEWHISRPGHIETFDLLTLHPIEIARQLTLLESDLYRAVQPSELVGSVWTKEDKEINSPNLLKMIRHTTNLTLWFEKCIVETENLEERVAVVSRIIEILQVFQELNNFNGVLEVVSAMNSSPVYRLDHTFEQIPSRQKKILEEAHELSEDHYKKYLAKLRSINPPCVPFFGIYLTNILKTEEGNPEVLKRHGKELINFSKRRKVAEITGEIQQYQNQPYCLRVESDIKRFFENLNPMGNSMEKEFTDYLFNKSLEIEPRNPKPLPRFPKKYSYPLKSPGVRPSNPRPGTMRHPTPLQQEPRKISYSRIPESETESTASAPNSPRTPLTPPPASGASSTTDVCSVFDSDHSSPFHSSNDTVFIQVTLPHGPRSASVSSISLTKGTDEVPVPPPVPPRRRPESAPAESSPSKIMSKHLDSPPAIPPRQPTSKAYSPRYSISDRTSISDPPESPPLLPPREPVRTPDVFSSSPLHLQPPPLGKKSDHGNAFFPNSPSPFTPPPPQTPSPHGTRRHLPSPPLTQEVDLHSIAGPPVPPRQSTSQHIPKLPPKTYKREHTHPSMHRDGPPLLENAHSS
Put plainly: Inhibition to His6-tagged Sos1 catalytic domain-mediated nucleotide exchange by fluorimetric assay.

Experiment [2] in a line: Binding affinity to Ras SOS1 binding site.
A further experiment concerns the target GTPase NRas (Homo sapiens, UniProt P01111). Put plainly: Inhibition of N-Ras expressed in Escherichia coli using [3H]GDP and [3H]GTP assessed as inhibition of intrinsic nucleotide exchange by scintillation counting.
Experiment [3] can be described thus: Inhibition of Ras assessed as inhibition of intrinsic nucleotide exchange in cell-based assay.

pEC50, pIC50, pKd: −log10 of the molar value.

GTPase NRas, sequence (P01111 whole entry): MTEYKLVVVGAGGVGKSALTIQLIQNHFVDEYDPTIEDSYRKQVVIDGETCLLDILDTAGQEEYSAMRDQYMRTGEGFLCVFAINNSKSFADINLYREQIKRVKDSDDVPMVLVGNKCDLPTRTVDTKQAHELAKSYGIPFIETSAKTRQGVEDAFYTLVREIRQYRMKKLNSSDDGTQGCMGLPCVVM
GTPase KRas, sequence (P01116 whole entry G12D): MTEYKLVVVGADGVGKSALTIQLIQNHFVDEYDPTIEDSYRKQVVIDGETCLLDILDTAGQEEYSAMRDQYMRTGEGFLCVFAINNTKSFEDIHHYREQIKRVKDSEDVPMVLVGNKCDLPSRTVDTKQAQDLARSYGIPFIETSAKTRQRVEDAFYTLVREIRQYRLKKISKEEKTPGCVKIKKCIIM

For the molecule `CC[C@H](C)[C@H](N)C(=O)Nc1ccc2nc(Cc3c[nH]c4ccccc34)[nH]c2c1`, the pKd – broadly, the negative decadic logarithm of the Kd, by convention in mol/L – at GTPase KRas was 3.72. As to `CC[C@H](C)[C@H](NC(=O)CN1C/C=C\CCC(=O)N[C@@H](Cc2ccccc2)C(=O)N[C@@H](CCC(=O)O)C1=O)C(=O)N[C@@H](Cc1ccc(O)cc1)C(=O)N[C@@H](CCCNC(=N)N)C(=O)N[C@@H](CC(C)C)C(=O)N[C@@H](CCC(=O)O)C(=O)N[C@@H](CC(C)C)C(=O)N[C@@H](CC(C)C)C(=O)N[C@@H](CCCCN)C(=O)N[C@@H](C)C(=O)N[C@@H](CCC(=O)O)C(=O)N[C@@H](CCC(=O)O)C(=O)N[C@@H](C)C(=O)N[C@@H](CC(N)=O)C(N)=O`, the pIC50 – broadly, the IC50 on a negative log10 scale, so that one unit is a factor of ten – in experiment [1] is 4.60. `Oc1ccccc1C(=S)N1CCCC1` came in with an Activity in experiment [2] of 1.3 mM. In experiment [2], `c1ccc2c(Cc3nc4ccncc4[nH]3)c[nH]c2c1` returned an Activity of 1.3 mM. Molecule `Nc1cccc(NS(=O)(=O)c2ccc(F)cc2)n1` gave an Activity in experiment [2] of 1.3 mM. Turning to `O=S(=O)(c1ccc(NO)cc1)N(CCOc1ccc2ccccc2c1)[C@@H]1O[C@H](CO)[C@@H](O)[C@H](O)[C@H]1O`, the pIC50 on GTPase NRas is 6.30. For the molecule `O=S(=O)(NCCOc1ccc2ccccc2c1)c1ccc(NO)cc1`, the pEC50 (in general, −log10 of the EC50, conventionally taken in molar units) in experiment [3] is 5.00.
